Experimental data: ChEMBL document CHEMBL1139671, “Nuphar alkaloids with immediately apoptosis-inducing activity from Nuphar pumilum and their structural requirements for the activity” (2006)
Activity calls are given as the source filed them. No cut-off for these calls is given here.

Experiments:
B16-F10 [1] = assay: Cytotoxicity against B16F10 cells at 0.1 uM after 72 hrs; format: functional; conditions: Mus musculus, B16-F10, 72 h
B16-F10 [2] = assay: Cytotoxicity against B16F10 cells at 1.0 uM after 72 hrs; format: functional; conditions: Mus musculus, B16-F10, 72 h
B16-F10 [3] = assay: Cytotoxicity against B16F10 cells at 10 uM after 72 hrs; format: functional; conditions: Mus musculus, B16-F10, 72 h
HT-1080 [4] = assay: Cytotoxicity against HT1080 cells at 10 uM after 72 hrs; format: functional; conditions: Homo sapiens, HT-1080, 72 h
HT-1080 [5] = assay: Cytotoxicity against HT1080 cells at 0.1 uM after 72 hrs; format: functional; conditions: Homo sapiens, HT-1080, 72 h
HT-1080 [6] = assay: Cytotoxicity against HT1080 cells at 1.0 uM after 72 hrs; format: functional; conditions: Homo sapiens, HT-1080, 72 h
U-937 [7] = assay: Cytotoxicity against U937 cells at 1.0 uM after 72 hrs; format: functional; conditions: Homo sapiens, U-937, 72 h
U-937 [8] = assay: Cytotoxicity against U937 cells at 10 uM after 72 hrs; format: functional; conditions: Homo sapiens, U-937, 72 h
B16-F10 [9] = assay: Cytotoxicity against B16F10 cells at 0.1 uM after 48 hrs; format: functional; conditions: Mus musculus, B16-F10, 48 h
B16-F10 [10] = assay: Cytotoxicity against B16F10 cells at 1.0 uM after 48 hrs; format: functional; conditions: Mus musculus, B16-F10, 48 h
B16-F10 [11] = assay: Cytotoxicity against B16F10 cells at 10 uM after 48 hrs; format: functional; conditions: Mus musculus, B16-F10, 48 h
HT-1080 [12] = assay: Cytotoxicity against HT1080 cells at 0.1 uM after 24 hrs; format: functional; conditions: Homo sapiens, HT-1080, 24 h
U-937 [13] = assay: Induction of apoptosis in U937 cells by DNA fragmentation assay; format: functional, cell-based; conditions: Homo sapiens
HT-1080 [14] = assay: Cytotoxicity against HT1080 cells at 1.0 uM after 24 hrs; format: functional; conditions: Homo sapiens, HT-1080, 24 h
HT-1080 [15] = assay: Cytotoxicity against HT1080 cells at 10 uM after 24 hrs; format: functional; conditions: Homo sapiens, HT-1080, 24 h
HT-1080 [16] = assay: Cytotoxicity against HT1080 cells at 0.1 uM after 48 hrs; format: functional; conditions: Homo sapiens, HT-1080, 48 h
HT-1080 [17] = assay: Cytotoxicity against HT1080 cells at 1.0 uM after 48 hrs; format: functional; conditions: Homo sapiens, HT-1080, 48 h
HT-1080 [18] = assay: Cytotoxicity against HT1080 cells at 10 uM after 48 hrs; format: functional; conditions: Homo sapiens, HT-1080, 48 h
U-937 [19] = assay: Cytotoxicity against U937 cells at 1.0 uM after 24 hrs; format: functional; conditions: Homo sapiens, U-937, 24 h
U-937 [20] = assay: Cytotoxicity against U937 cells at 10 uM after 24 hrs; format: functional; conditions: Homo sapiens, U-937, 24 h
U-937 [21] = assay: Cytotoxicity against U937 cells at 1.0 uM after 48 hrs; format: functional; conditions: Homo sapiens, U-937, 48 h
U-937 [22] = assay: Cytotoxicity against U937 cells at 10 uM after 48 hrs; format: functional; conditions: Homo sapiens, U-937, 48 h
B16-F10 [23] = assay: Cytotoxicity against B16F10 cells at 10 uM after 24 hrs; format: functional; conditions: Mus musculus, B16-F10, 24 h

SMILES	inhibition at 0.1 µM (B16-F10 [1])	inhibition at 1 µM (B16-F10 [2])	inhibition at 10 µM (B16-F10 [3])	inhibition at 10 µM (HT-1080 [4])	inhibition at 0.1 µM (HT-1080 [5])	inhibition at 1 µM (HT-1080 [6])	inhibition at 1 µM (U-937 [7])	inhibition at 10 µM (U-937 [8])	also measured
C[C@H]1CC[C@H]2[C@H](C)CC[C@@H](c3ccoc3)[N+]2([O-])C1 (stereo partly drawn) [NUPHARIDINE]	0.6%	5.3%	4.1%	-9%	-3.3%	-9%	8%	11.5%	
C[C@@H]1CC[C@@H](c2ccoc2)N2C[C@@]3(CC[C@@H]12)CS[C@@]1(CC[C@H]2[C@H](C)CC[C@@H](c4ccoc4)N2[C@@H]1O)C3	11.1%	20.8%	98.7%	99.2%	5.4%	15.7%	-1%	94.3%	inhibition at 0.1 µM (B16-F10 [9]): 10.3%; inhibition at 1 µM (B16-F10 [10]): 27.3%; inhibition at 10 µM (B16-F10 [11]): 97.3%; inhibition at 0.1 µM (HT-1080 [12]): 1.8%; Activity (U-937 [13]): Active; inhibition at 1 µM (HT-1080 [14]): 14%; inhibition at 10 µM (HT-1080 [15]): 96.1%; inhibition at 0.1 µM (HT-1080 [16]): 1.6%; inhibition at 1 µM (HT-1080 [17]): 8.3%; inhibition at 10 µM (HT-1080 [18]): 97.5%; inhibition at 1 µM (U-937 [19]): 3.6%; inhibition at 10 µM (U-937 [20]): 83.2%; inhibition at 1 µM (U-937 [21]): 1.3%; inhibition at 10 µM (U-937 [22]): 92.5%; inhibition at 10 µM (B16-F10 [23]): 88.6%
C[C@@H]1CC[C@@H](c2ccoc2)N2C[C@]3(CC[C@@H]12)C[S+]([O-])[C@]1(CC[C@H]2[C@H](C)CC[C@@H](c4ccoc4)N2C1)C3 (stereo partly drawn)	-3.7%	7.7%	9.1%	6.8%	-0.4%	-1.8%	5.8%	10%	
C[C@@H]1CC[C@@H](c2ccoc2)N2C[C@@]3(CC[C@@H]12)C[S+]([O-])[C@]1(CC[C@H]2[C@H](C)CC[C@@H](c4ccoc4)N2C1)C3 (stereo partly drawn)	10.4%	3.2%	10.8%	-4.4%	-6.1%	-8.1%	4.7%	6.3%	
COc1cc([C@H]2Oc3c(OC)cc(CCCO)cc3[C@@H]2CO)ccc1O [DIHYDRODEHYDRODICONIFERY ALCOHOL]	-2.4%	-5.3%	-6.5%	11.9%	8.9%	5.2%	9.3%	13.4%	
C[C@@H]1CC[C@@H](c2ccoc2)N2[C@H]1CC[C@@]1(CS[C@@]3(CC[C@H]4[C@H](C)CC[C@@H](c5ccoc5)N4[C@@H]3O)C1)[C@H]2O	-3.5%	-6%	54.8%	75.3%	0.1%	-0.9%	1.3%	81.6%	inhibition at 0.1 µM (B16-F10 [9]): -8%; inhibition at 1 µM (B16-F10 [10]): -15%; inhibition at 10 µM (B16-F10 [11]): 51.8%; inhibition at 10 µM (HT-1080 [15]): 19.3%; inhibition at 0.1 µM (HT-1080 [16]): 9%; inhibition at 1 µM (HT-1080 [17]): 0.5%; inhibition at 10 µM (HT-1080 [18]): 75%; inhibition at 1 µM (U-937 [19]): 5.3%; inhibition at 10 µM (U-937 [20]): 54.7%; inhibition at 1 µM (U-937 [21]): 2.3%; inhibition at 10 µM (U-937 [22]): 80%; inhibition at 10 µM (B16-F10 [23]): 16.6%
C[C@@H]1CC[C@@H](c2ccoc2)N2C[C@@]3(CC[C@@H]12)C[C@]1(CC[C@H]2[C@H](C)CC[C@@H](c4ccoc4)N2[C@@H]1O)CS3 [6'-HYDROXYTHIONUPHLUTINE B]	1.7%	-1.6%	-4.8%	-9.1%	-9.8%	-7.3%	0.1%	0.5%	
